# Measured values taken from US8153692B2, “Oral preparation for preventing or improving skin dryness” (Kyowa Hakko Bio Co., Ltd., priority 2005, dated 2012).
# Test system: HOS:HR-1 mice
# Test: Skin water content after oral ingestion of citrulline in feed (SKICON-200)
# Assay type: in vivo
# Conditions: CE-2 feed containing 1.0% by weight of L-citrulline, measured weekly from 1 to 5 weeks, relative to CE-2 feed group
# Description: HOS:HR-1 mice (male, 5 weeks old, purchased from Charles River Co., Ltd.) were used in the test. The breeding conditions were that the room temperature was 22±2° C., the humidity was 35±15% and a feed and water were freely ingested.
# Each test group consisted of 10 mice. A commercially available powder feed CE-2 (manufactured by Clea Japan) was fed to mice of the first group, CE-2 containing 1.0% by weight of L-citrulline (manufactured by Kyowa Hakko Kogyo Co., Ltd.) was fed to mice of the second group.
# The water content of the skin surface on the back thigh upper portion of each mouse was measured with SKICON-200 (manufactured by IBS) every one week, from a week to five weeks after the start-up of the feeding of each feed. The measurement was conducted ten times for each mouse, and an average value of each mouse was obtained. Further, an average value of each test group was calculated.
# The relative epidermal water content was calculated according to the following formula using the average value. Relative epidermal water content (%)=(A2/A1)×100 • A1: Epidermal water content of the first group • A2: Epidermal water content of the second group
structure (smiles),measurement,value
"NC(=O)NCCC[C@H](N)C(=O)O [citrulline, L-citrulline]",water content of the skin (relative epidermal water content),markedly improved
